{
  "source": "ChEMBL document CHEMBL1145707",
  "about": "“Methyl 4-hydroxy-3-(3'-methyl-2'-butenyl)benzoate, major insecticidal principle from Piper guanacastensis” (1997)",
  "test_system": "Aedes atropalpus",
  "assay": "Insecticidal activity against Aedes atropalpus second-instar larvae after 24 hrs",
  "assay_type": "functional",
  "data": [
    {"smiles": "COC(=O)c1ccc(O)c(CC=C(C)C)c1", "values": [
      {"measurement": "LC50", "value": 20.5, "unit": "µg/mL"}
    ]},
    {"smiles": "CCOC(=O)c1ccc(O)c(CC=C(C)C)c1", "values": [
      {"measurement": "LC50", "value": 25.7, "unit": "µg/mL"}
    ]}
  ]
}
